Laboratory results as given in patent US5428019A, “Bombesin analogs” (Merrell Dow Pharmaceuticals Inc., priority 1994, dated 1995).
Read-outs that look alike come from different tables or passages of the source. Where a SMILES comes first, the peptide text is derived from it. [ ]: non-standard residue; d: D form. The star is where a group is joined. X1 = CC(C)C[C@@H](C(N)=O)N(C)C[C@H](Cc1ccccc1)N*; X2 = CC(C)C[C@@H](CN[C@@H](CC(C)C)C(N)=O)N*; Palmitoyl = CCCCCCCCCCCCCCCC(=O)*; pGlu = O=C1CC[C@@H](C(=O)O)N1; Lauroyl = CCCCCCCCCCCC(=O)*; Octanoyl = CCCCCCCC(=O)*

Assays:
Bombesin Receptor = molecular target: T1, Bombesin Receptor (Mus musculus, UniProt P21729); experiment: Phosphatidylinositol turnover in chopped mouse pancreas; assay type: cell-based; design: key to PI Turnover Agonist: (+) represents agonist activity; (-) indicates no agonist activity; conditions: for PI Turnover % Inhibition: antagonist activity, referenced to the stimulation produced by 100 nM GRP
T1 construct: Pancreata from mice were chopped at 350 μm with a tissue chopper and pooled; from tissue; host or cells: chopped mouse pancreas
Description: Pancreata from mice were chopped at 350 μm with a tissue chopper and pooled. The chopped tissue was washed twice with oxygenated Krebs-Hepes, then incubated for 30 minutes in 37° C. oxygenated Krebs-Hepes buffer with fresh buffer after 15 minutes. The tissue was then incubated in this buffer containing 200 μCi of [^3 H] inositol at 37° C. for 1 hour. The tissue was then washed twice and incubated for another 30 minutes in oxygenated Krebs-Hepes (containing 10 mM Li^+) at 37° C. with a fresh buffer change after 15 minutes. Portions of the tissue mass (approximately 10 mg per assay tube) were then placed in Li^+ buffer with protease inhibitors, (40 μg/ml bacitracin, 4 μg/ml leupeptin, 4 μg/ml chymostatin, 8 μg/ml thiorphan), 0.1% BSA, and 0.1-10 μM peptide in a final volume of 250 μl. After 60 minutes at room temperature, the phosphatidylinositol turnover was terminated by the addition of 940 μl chloroform:methanol (1:2), followed by 310 μl chloroform, followed by 310 μl water. Each tube was then vortexed for 5 seconds and then centrifuged at 2500 x g for 10 minutes to separate the phases. 50 μl of the bottom phase (chloroform) was withdrawn from each tube and placed in a counting vial, dried, and counted in scintillation fluid. 900 μl of the top (aqueous) phase were then mixed with 2.1 ml water and loaded onto a 0.5 ml Biorad AG-1X8 (formate) ion exchange column. The material on the columns was washed in order with: 1) 10 ml of water 2) 5 ml of 5 mM disodium tetraborate/60 mM sodium formate 3) 10 ml of 1 M ammonium formate in 0.1 M formic acid. The final (third) wash was collected and one ml was mixed with 14 ml of Bio-Safe scintillant and counted. The ratio of these counts (total inositol phosphates) to the corresponding organic phase counts (inositol incorporated into the tissue) was then calculated for each sample. The ratios in the presence of test compound and/or standards were then compared to the ratios for control tubes (i.e., no stimulating agonist). The abilities of test compounds to stimulate phosphatidyl-inositol turnover were determined with the aid of a computer program. […] The ordinate (y-axis) indicates the observed PI turnover as a percentage of control. Values are mean±standard error of triplicate determinations.

bombesin/GRP receptor = molecular target: T2, bombesin/GRP receptor (Mus musculus, UniProt P21729); experiment: Competition for 125I-GRP binding to murine pancreatic membranes
T2 construct: The pancreata from one or more mice were pooled and homogenized; from tissue; host or cells: mouse pancreas membranes
Description: The pancreata from one or more mice were pooled and homogenized in 50 mM HEPES (pH 7.4) containing 120 mM NaCl, 5 mM KCl, 1 mM EDTA and protease inhibitors (1 μg/ml aprotinin, leupeptin, pepstatin; 4 μg/ml bacitracin, antipain, bestatin; 100 μM PMSF) at 4° C. and centrifuged at 37,500 X g for 15 minutes. The pellet was resuspended in 50 mM HEPES (pH 7.4) containing 10 mM EDTA, 300 mM KCl, and protease inhibitors, and then incubated for 30 minutes at 4° C. The suspension was centrifuged as above and the pellet was washed two times in 50 mM HEPES (pH 7.4) containing 8 μg/ml thiorphan and protease inhibitors, and again centrifuged. The tissue was then resuspended in incubation buffer (1 ml per 4 mg pancreas) and incubated for 15 minutes at room temperature, then 250 μl were added to each assay tube to commence the assay. […] The assay was allowed to proceed to equilibrium for 90 minutes at room temperature. After this time, the contents of each tube was rapidly filtered over Whatman GF/B filters presoaked in 0.1% polyethyleneimine and the filters were rapidly washed three times with ice-cold 50 mM HEPES (pH 7.4). Filter-bound radioactivity was quantitated in a gamma counter. […] Affinity and maximal binding were calculated with LIGAND (Biosoft, Cambridge, UK) (FIGS. 1 and FIG. 2)
The abscissa (x-axis) logarithmically indicates the concentration of agonists being tested.

[1] = competitive binding, mouse pancreas, averages of multiple experiments, read-out: Kd

T1 sequence (P21729 whole entry): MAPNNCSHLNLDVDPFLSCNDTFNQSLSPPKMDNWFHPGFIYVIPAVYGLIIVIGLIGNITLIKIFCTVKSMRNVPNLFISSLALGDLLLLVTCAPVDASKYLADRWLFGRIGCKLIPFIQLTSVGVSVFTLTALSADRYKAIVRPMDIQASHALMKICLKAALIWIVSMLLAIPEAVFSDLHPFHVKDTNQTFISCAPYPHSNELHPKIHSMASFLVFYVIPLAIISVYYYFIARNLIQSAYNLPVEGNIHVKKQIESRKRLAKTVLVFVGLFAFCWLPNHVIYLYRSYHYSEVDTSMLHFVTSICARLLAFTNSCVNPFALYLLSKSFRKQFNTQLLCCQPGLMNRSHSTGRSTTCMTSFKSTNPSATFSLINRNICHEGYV
T2 sequence (P21729 whole entry): as above

Structure (SMILES)	PI Turnover % Inhibition (Bombesin Receptor)	Kd (bombesin/GRP receptor; [1])	PI Turnover Agonist (Bombesin Receptor)	further results
CC(C)C[C@@H](C(N)=O)[S+]([O-])C[C@H](Cc1ccccc1)NC(=O)[C@H](Cc1c[nH]cn1)NC(=O)CNC(=O)[C@@H](NC(=O)[C@H](C)NC(=O)[C@H](Cc1c[nH]c2ccccc12)NC(=O)[C@H](CCC(N)=O)NC(=O)[C@@H]1CCC(=O)N1)C(C)C (single isomer, unassigned) [[Phe^8 .psi.[CH2 S(O)]Leu^9 ]litorin II] [pGlu--Gln--Trp--Ala--Val--Gly--His--Phe.psi.[CH2 S(O)]Leu--NH2]	83%			
CC(C)C[C@@H](C(N)=O)[S+]([O-])C[C@H](Cc1ccccc1)NC(=O)[C@H](Cc1c[nH]cn1)NC(=O)CNC(=O)[C@@H](NC(=O)[C@H](C)NC(=O)[C@H](Cc1c[nH]c2ccccc12)NC(=O)[C@H](CCC(N)=O)NC(=O)[C@@H]1CCC(=O)N1)C(C)C (single isomer, unassigned) [[Phe^8 .psi.[CH2 S(O)]Leu^9 ]litorin I] [pGlu--Gln--Trp--Ala--Val--Gly--His--Phe.psi.[CH2 S(O)]Leu--NH2]	53%			
CC(C)C[C@@H](C(N)=O)[S+]([O-])C[C@H](Cc1ccccc1)NC(=O)[C@H](Cc1c[nH]cn1)NC(=O)CNC(=O)[C@@H](NC(=O)[C@H](C)NC(=O)[C@H](Cc1c[nH]c2ccccc12)NC(=O)[C@H](CCC(N)=O)NC(=O)[C@@H]1CCC(=O)N1)C(C)C (single isomer, unassigned) [[Phe^8 .psi.[CH2 S(O)]Leu^9]litorin I, pGlu--Gln--Trp--Ala--Val--Gly--His--Phe.psi.[CH2 S(O)]Leu--NH2]		1.8 nM		
CC(C)C[C@@H](C(N)=O)[S+]([O-])C[C@H](Cc1ccccc1)NC(=O)[C@H](Cc1c[nH]cn1)NC(=O)CNC(=O)[C@@H](NC(=O)[C@H](C)NC(=O)[C@H](Cc1c[nH]c2ccccc12)NC(=O)[C@H](CCC(N)=O)NC(=O)[C@@H]1CCC(=O)N1)C(C)C (single isomer, unassigned) [[Phe^8 .psi.[CH2 S(O)]Leu^9]litorin II, pGlu--Gln--Trp--Ala--Val--Gly--His--Phe.psi.[CH2 S(O)]Leu--NH2]		1 nM		
CC(=O)N[C@@H](CCC(N)=O)C(=O)N[C@@H](Cc1c[nH]c2ccccc12)C(=O)N[C@@H](C)C(=O)N[C@H](C(=O)N[C@H](C)C(=O)N[C@@H](Cc1c[nH]cn1)C(=O)N[C@@H](CC(C)C)C(N)=O)C(C)C [Acetyl[D-Ala^11]bombesin(7-13)amide, Nα-acetyl-Gln--Trp--Ala--Val-D-Ala--His--Leu--NH2] (Ac-QWAV[dA]HL-NH2)	24%		-	
CCCCCCCCCCCC(=O)N[C@@H](CCC(N)=O)C(=O)N[C@@H](Cc1c[nH]c2ccccc12)C(=O)N[C@@H](C)C(=O)N[C@H](C(=O)N[C@H](C)C(=O)N[C@@H](Cc1c[nH]cn1)C(=O)N[C@@H](CC(C)C)C(N)=O)C(C)C [Lauryl[D-Ala^11]bombesin(7-13)amide, Nα-lauryl-Gln--Trp--Ala--Val-D-Ala--His--Leu--NH2] (Lauroyl-QWAV[dA]HL-NH2)	53%			
CSCC[C@H](NC(=O)[C@H](Cc1ccccc1)NC(=O)[C@H](Cc1c[nH]cn1)NC(=O)CNC(=O)[C@@H](NC(=O)[C@H](C)NC(=O)[C@H](Cc1c[nH]c2ccccc12)NC(=O)[C@H](CCC(N)=O)NC(=O)[C@@H]1CCC(=O)N1)C(C)C)C(N)=O [Litorin, pGlu--Gin--Trp--Ala--Val--Gly--His--Phe--Met--NH2, reference compound]		0.075 nM	+	Kd (bombesin/GRP receptor; triplicate, in the presence of 40 pM 125I-GRP, LIGAND fit, read-out: Kd, single class of sites (FIG. 2)): 0.1 nM
CCCCCCCC(=O)N[C@@H](CCC(N)=O)C(=O)N[C@@H](Cc1c[nH]c2ccccc12)C(=O)N[C@@H](C)C(=O)N[C@H](C(=O)N[C@H](C)C(=O)N[C@@H](Cc1c[nH]cn1)C(=O)N[C@@H](CC(C)C)C(N)=O)C(C)C [Octanoyl[D-Ala^11]bombesin(7-13)amide, Nα-octyl-Gln--Trp--Ala--Val-D-Ala--His--Leu--NH2] (Octanoyl-QWAV[dA]HL-NH2; N-terminus and C-terminus assumed)			-	
CCCCCCCCCCCCCCCC(=O)N[C@@H](CCC(N)=O)C(=O)N[C@@H](Cc1c[nH]c2ccccc12)C(=O)N[C@@H](C)C(=O)N[C@H](C(=O)N[C@H](C)C(=O)N[C@@H](Cc1c[nH]cn1)C(=O)N[C@@H](CC(C)C)C(N)=O)C(C)C [Palmityl[D-Ala^11]bombesin(7-13)amide, Nα-palmityl-Gln--Trp--Ala--Val-D-Ala--His--Leu--NH2] (Palmitoyl-QWAV[dA]HL-NH2)	45%			
CC(C)C[C@@H](CN[C@@H](CC(C)C)C(N)=O)NC(=O)[C@H](Cc1c[nH]cn1)NC(=O)CNC(=O)[C@@H](NC(=O)[C@H](C)NC(=O)[C@H](Cc1c[nH]c2ccccc12)NC(=O)[C@H](CCC(N)=O)NC(=O)[C@H](CC(N)=O)NC(=O)CNC(=O)[C@H](CC(C)C)NC(=O)[C@H](CCCNC(=N)N)NC(=O)[C@H](CCC(N)=O)NC(=O)[C@@H]1CCC(=O)N1)C(C)C [[Leu^13 .psi.{CH2 NH]Leu^14]bombesin, pGlu--Gln--Arg--Leu--Gly--Asn--Gln--Trp--Ala--Val--Gly--His--Leu.psi.[CH2 N]Leu--NH2, reference compound] ([pGlu]QRLGNQWAVGH-X2)	30%			
CC(C)C[C@@H](CN[C@@H](CC(C)C)C(N)=O)NC(=O)[C@H](Cc1cnc[nH]1)NC(=O)CNC(=O)[C@@H](NC(=O)[C@H](C)NC(=O)[C@H](Cc1c[nH]c2ccccc12)NC(=O)[C@H](CCC(N)=O)NC(=O)[C@H](CC(N)=O)NC(=O)CNC(=O)[C@H](CC(C)C)NC(=O)[C@H](CCCN=C(N)N)NC(=O)[C@H](CCC(N)=O)NC(=O)[C@@H]1CCC(=O)N1)C(C)C [[Leu^13 .psi.{CH2 NH]Leu^14]bombesin, pGlu--Gln--Arg--Leu--Gly--Asn--Gln--Trp--Ala--Val--Gly--His--Leu.psi.[CH2 N]Leu--NH2, reference compound] ([pGlu]QRLGNQWAVGH-X2)		8 nM		
CC(C)C[C@@H](C(N)=O)N(C)C[C@H](Cc1ccccc1)NC(=O)[C@H](Cc1c[nH]cn1)NC(=O)CNC(=O)[C@@H](NC(=O)[C@H](C)NC(=O)[C@H](Cc1c[nH]c2ccccc12)NC(=O)[C@H](CCC(N)=O)NC(=O)[C@@H]1CCC(=O)N1)C(C)C [[Phe^8 .psi.[CH2 N(CH3)]Leu^9]litorin] ([pGlu]QWAVGH-X1)	-16%		+	PI turnover as a percentage of control (FIG. 3) (Bombesin Receptor; triplicate determinations): statistically significant (P<0.005) increase in PI turnover; Kd (bombesin/GRP receptor; duplicate, 20 pM 125I-GRP, two-site fit, read-out: Kd, high affinity class of sites (FIG. 2)): 0.08 nM; Kd (bombesin/GRP receptor; duplicate, 20 pM 125I-GRP, two-site fit, read-out: Kd, low affinity class of sites (FIG. 2)): 16 nM; Kd (bombesin/GRP receptor; first of two values in the cell, mouse pancreas, averages of multiple experiments, read-out: Kd (nM), high affinity class of sites): 0.019 nM; Kd (bombesin/GRP receptor; second of two values in the cell, mouse pancreas, averages of multiple experiments, read-out: Kd (nM), low affinity class of sites): 23 nM; receptors in the high affinity state (FIG. 2) (bombesin/GRP receptor; two-site fit, 20 pM 125I-GRP): 20%
CC(C)C[C@H](SC[C@H](Cc1ccccc1)NC(=O)[C@H](Cc1c[nH]cn1)NC(=O)CNC(=O)[C@@H](NC(=O)[C@H](C)NC(=O)[C@H](Cc1c[nH]c2ccccc12)NC(=O)[C@H](CCC(N)=O)NC(=O)[C@@H]1CCC(=O)N1)C(C)C)C(N)=O [[Phe^8 .psi.[CH2 S]Leu^9]litorin, pGlu--Gln--Trp--Ala--Val--Gly--His--Phe.psi.[CH2 S]Leu--NH2]	42%			
